Laboratory results reported in US20240252488A1 (KOREA RESEARCH INSTITUTE OF CHEMICAL TECHNOLOGY, priority 2020, published 2024).

Key:
[1] = biological target: T1, MLKL (Homo sapiens, UniProt Q8NB16); test: Measurement of binding affinity with MLKL receptor (competitive binding assay, Kd); parameters: made in house; host or cells: HEK 293 cell line (T7 phage in E. coli BL21-derived host is also described)
T1 sequence (Q8NB16 1-471): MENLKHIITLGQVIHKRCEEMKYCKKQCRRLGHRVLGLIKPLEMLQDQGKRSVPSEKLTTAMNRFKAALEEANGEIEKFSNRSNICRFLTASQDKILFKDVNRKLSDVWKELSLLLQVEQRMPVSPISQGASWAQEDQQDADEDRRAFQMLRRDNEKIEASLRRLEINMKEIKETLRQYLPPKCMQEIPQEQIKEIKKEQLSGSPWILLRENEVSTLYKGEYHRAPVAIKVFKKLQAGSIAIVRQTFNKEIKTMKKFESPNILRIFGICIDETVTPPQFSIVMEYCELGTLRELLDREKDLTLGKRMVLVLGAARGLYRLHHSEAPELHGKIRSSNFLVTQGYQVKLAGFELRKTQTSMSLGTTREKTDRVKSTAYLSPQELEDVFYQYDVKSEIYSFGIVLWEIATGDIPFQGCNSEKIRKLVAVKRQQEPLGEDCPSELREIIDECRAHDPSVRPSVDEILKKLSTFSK
Method in brief: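 Competition binding of kinase tagged with DNA for qPCR detection, expressed in HEK 293 cells, against immobilized ligand on beads. Final DMSO 0.9%. Kd derived from kinase amount in eluates measured by qPCR.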

[2] = biological target: T1, MLKL; test: MLKL degradation assay in HepG2 cell line (western blot); format: cell-based; parameters: endogenous in cells; host or cells: HepG2 or HaCaT; conditions: cell line not given; for Degradation assay (Degradation %) 10 μM: compound 10 μM; for Degradation assay (Degradation %) 1 μM: compound 1 μM
Method in brief: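 HepG2, cpd final 1 or 10 μM, 20-24 h, 37 °C/5% CO2; RIPA lysis, BCA-normalized, 10-15 μg/lane SDS-PAGE, western blot, ECL read-out.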

[3] = test system: FADD−/− Jurkat cells; test: Necroptosis inhibition assay, TNF-α-induced necroptosis (CellTiter-Glo 2.0); format: cell-based, human; conditions: TNF-α 15 ng/mL; for Necroptosis inhibition assay (Rescue %) 1 μM: compound 1 μM; for Necroptosis inhibition assay (Rescue %) 10 μM: compound 10 μM
Method in brief: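 Cmpd 0.1/1/10 μM final, 30 min RT preincubation; TNF-α 15 ng/mL final; 20–24 h, 37° C, 5% CO2. Readout: ATP luminescence (reagent 1:3 in PBS), 0.5 s/well. Cytotoxicity and % necroptosis inhibition calculated from signal.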

Compound | Kd [1] [nM] | Degradation assay (Degradation %) 10 μM [2] [%] | Degradation assay (Degradation %) 1 μM [2] [%] | Necroptosis inhibition assay (Rescue %) 1 μM [3] [%] | Necroptosis inhibition assay (Rescue %) 10 μM [3] [%]
Nc1ncc(-c2cnn(C3CCN(CC4CCN(C(=O)COc5ccc6nnn(C7CCC(=O)NC7=O)c(=O)c6c5)CC4)CC3)c2)nc1C(=O)O[C@@H](C(=O)Nc1ccc(F)cc1)c1ccccc1 (stereo partly drawn) [TDH-169, (R)-2-((4-fluorophenyl)amino)-2-oxo-1-phenylethyl 3-amino-6-(1-(1-((1-(2-((3-(2,6-dioxopiperidin-3-yl)-4-oxo-3,4-dihydrobenzo[d][1,2,3]triazin-6-yl)oxy)acetyl)piperidin-4-yl)methyl)piperidin-4-yl)-1H-pyrazol-4-yl)pyrazine-2-carboxylate] | 2 | 58.09 | 71.77 | 68.09 | 50.74
Nc1ncc(-c2cnn(C3CCN(CC4CCN(C(=O)COc5ccc6c(c5)C(=O)N(C5CCC(=O)NC5=O)C6=O)CC4)CC3)c2)nc1C(=O)O[C@@H](C(=O)Nc1ccc(F)cc1)c1ccccc1 (stereo partly drawn) [TDH-171, (R)-2-((4-fluorophenyl)amino)-2-oxo-1-phenylethyl 3-amino-6-(1-(1-((1-(2-((2-(2,6-dioxopiperidin-3-yl)-1,3-dioxoisoindolin-5-yl)oxy)acetyl)piperidin-4-yl)methyl)piperidin-4-yl)-1H-pyrazol-4-yl)pyrazine-2-carboxylate] | 2.3 | 64.5 | 64.64 | 93.81 | 65.91
Nc1ncc(-c2cnn(C3CCN(CCCCCCCCCCNC(=O)CNc4ccc5nnn(C6CCC(=O)NC6=O)c(=O)c5c4)CC3)c2)nc1C(=O)O[C@@H](C(=O)Nc1ccc(F)cc1)c1ccccc1 (stereo partly drawn) [TDH-173, (R)-2-((4-fluorophenyl)amino)-2-oxo-1-phenylethyl 3-amino-6-(1-(1-(10-(2-((3-(2,6-dioxopiperidin-3-yl)-4-oxo-3,4-dihydrobenzo[d][1,2,3]triazin-6-yl)amino)acetamido)decyl)piperidin-4-yl)-1H-pyrazol-4-yl)pyrazine-2-carboxylate] | 17 | 75.11 | 61.08 | 47.27 | 35.55
Nc1ncc(-c2cnn(C3CCN(CCOCCOCCNC(=O)CNc4ccc5nnn(C6CCC(=O)NC6=O)c(=O)c5c4)CC3)c2)nc1C(=O)O[C@@H](C(=O)Nc1ccc(F)cc1)c1ccccc1 (stereo partly drawn) [TDH-174, (R)-2-((4-fluorophenyl)amino)-2-oxo-1-phenylethyl 3-amino-6-(1-(1-(2-(2-(2-(2-((3-(2,6-dioxopiperidin-3-yl)-4-oxo-3,4-dihydrobenzo[d][1,2,3]triazin-6-yl)amino)acetamido)ethoxy)ethoxy)ethyl)piperidin-4-yl)-1H-pyrazol-4-yl)pyrazine-2-carboxylate] | 2.2 | 52.62 | 49.38 | 16.47 | 42.59
Nc1ncc(-c2cnn(C3CCN(CCCCCCCCCCNC(=O)C4CCN(c5ccc6nnn(C7CCC(=O)NC7=O)c(=O)c6c5)CC4)CC3)c2)nc1C(=O)O[C@@H](C(=O)Nc1ccc(F)cc1)c1ccccc1 (stereo partly drawn) [TDH-177, (R)-2-((4-fluorophenyl)amino)-2-oxo-1-phenylethyl 3-amino-6-(1-(1-(10-(1-(3-(2,6-dioxopiperidin-3-yl)-4-oxo-3,4-dihydrobenzo[d][1,2,3]triazin-6-yl)piperidine-4-carboxamido)decyl)piperidin-4-yl)-1H-pyrazol-4-yl)pyrazine-2-carboxylate] | 84 | 75.8 | 36.03 | 41.3 | 48.7
Nc1ncc(-c2cnn(C3CCN(CCCCCCCCCCNC(=O)C4CN(c5ccc6nnn(C7CCC(=O)NC7=O)c(=O)c6c5)C4)CC3)c2)nc1C(=O)O[C@@H](C(=O)Nc1ccc(F)cc1)c1ccccc1 (stereo partly drawn) [TDH-178, (R)-2-((4-fluorophenyl)amino)-2-oxo-1-phenylethyl 3-amino-6-(1-(1-(10-(1-(3-(2,6-dioxopiperidin-3-yl)-4-oxo-3,4-dihydrobenzo[d][1,2,3]triazin-6-yl)azetidine-3-carboxamido)decyl)piperidin-4-yl)-1H-pyrazol-4-yl)pyrazine-2-carboxylate] | 73 | 84.5 | 72.12 | 24.45 | 28.25

More lines, main results first:

Kd [1] [nM] | Degradation assay (Degradation %) 10 μM [2] [%] | Degradation assay (Degradation %) 1 μM [2] [%] | Compound | Necroptosis inhibition assay (Rescue %) 1 μM [3] [%] | Necroptosis inhibition assay (Rescue %) 10 μM [3] [%]
7.1 | 24.52 | – | Nc1ncc(-c2cnn(C3CCN(CCOCCNC(=O)COc4ccc5c(c4)C(=O)N(C4CCC(=O)NC4=O)C5=O)CC3)c2)nc1C(=O)O[C@@H](C(=O)Nc1ccc(F)cc1)c1ccccc1 (stereo partly drawn) [TDH-168, (R)-2-((4-fluorophenyl)amino)-2-oxo-1-phenylethyl 3-amino-6-(1-(1-(2-(2-(2-((2-(2,6-dioxopiperidin-3-yl)-1,3-dioxoisoindolin-5-yl)oxy)acetamido)ethoxy)ethyl)piperidin-4-yl)-1H-pyrazol-4-yl)pyrazine-2-carboxylate] | 31.24 | 40.55
4.6 | 58.27 | 60.57 | Nc1ncc(-c2cnn(C3CCN(CC4CCN(C(=O)C5CN(c6ccc7nnn(C8CCC(=O)NC8=O)c(=O)c7c6)C5)CC4)CC3)c2)nc1C(=O)O[C@@H](C(=O)Nc1ccc(F)cc1)c1ccccc1 (stereo partly drawn) [TDH-170, (R)-2-((4-fluorophenyl)amino)-2-oxo-1-phenylethyl 3-amino-6-(1-(1-((1-(1-(3-(2,6-dioxopiperidin-3-yl)-4-oxo-3,4-dihydrobenzo[d][1,2,3]triazin-6-yl)azetidine-3-carbonyl)piperidin-4-yl)methyl)piperidin-4-yl)-1H-pyrazol-4-yl)pyrazine-2-carboxylate] | 44.08 | 23.26
26 | 57.1 | 59.24 | Nc1ncc(-c2cnn(C3CCN(CC4CCN(c5ccc6nnn(C7CCC(=O)NC7=O)c(=O)c6c5)CC4)CC3)c2)nc1C(=O)O[C@@H](C(=O)Nc1ccc(F)cc1)c1ccccc1 (stereo partly drawn) [TDH-172, (R)-2-((4-fluorophenyl)amino)-2-oxo-1-phenylethyl 3-amino-6-(1-(1-((1-(3-(2,6-dioxopiperidin-3-yl)-4-oxo-3,4-dihydrobenzo[d][1,2,3]triazin-6-yl)piperidin-4-yl)methyl)piperidin-4-yl)-1H-pyrazol-4-yl)pyrazine-2-carboxylate] | 85.53 | 74.34
7.3 | 43.56 | 48.93 | Nc1ncc(-c2cnn(C3CCN(CCOCCOCCOCCNC(=O)CNc4ccc5nnn(C6CCC(=O)NC6=O)c(=O)c5c4)CC3)c2)nc1C(=O)O[C@@H](C(=O)Nc1ccc(F)cc1)c1ccccc1 (stereo partly drawn) [TDH-175, (R)-2-((4-fluorophenyl)amino)-2-oxo-1-phenylethyl 3-amino-6-(1-(1-(1-((3-(2,6-dioxopiperidin-3-yl)-4-oxo-3,4-dihydrobenzo[d][1,2,3]triazin-6-yl)amino)-2-oxo-6,9,12-trioxa-3-azatetradecan-14-yl)piperidin-4-yl)-1H-pyrazol-4-yl)pyrazine-2-carboxylate] | 18.82 | 35.89
22 | 23.76 | 34.07 | Nc1ncc(-c2cnn(C3CCN(CCCCCCCCCCNC(=O)COc4ccc5nnn(C6CCC(=O)NC6=O)c(=O)c5c4)CC3)c2)nc1C(=O)O[C@@H](C(=O)Nc1ccc(F)cc1)c1ccccc1 (stereo partly drawn) [TDH-176, (R)-2-((4-fluorophenyl)amino)-2-oxo-1-phenylethyl 3-amino-6-(1-(1-(10-(2-((3-(2,6-dioxopiperidin-3-yl)-4-oxo-3,4-dihydrobenzo[d][1,2,3]triazin-6-yl)oxy)acetamido)decyl)piperidin-4-yl)-1H-pyrazol-4-yl)pyrazine-2-carboxylate] | 44.28 | 35.42
